Laboratory results: patent publication US20250120905A1, “THERAPEUTIC AGENTS TARGETING THE LYMPHATIC SYSTEM” (VIVASOR, INC, priority 2021, published 2025)

Assays:
[1] = Etanercept lymph node concentrations after IV, SC, ID or lymphatic (Sofusa) delivery; type: in vivo; conditions: for etanercept concentration in lymph nodes, lymphatic (Sofusa) vs IV administration: percentage initial dose per gram of lymph tissue
Procedure: Etanercept was administered to subjects either via intravenous (IV), subcutaneous (SC), Intradermal (ID), or lymphatic (Sofusa) delivery. Average etanercept concentrations (expressed as percentage initial dose per gram of lymph tissue) in lymph node tissue was then determined at twelve and 36 hours post-administration. […] In particular, etanercept concentrations at 12 hours post lymphatic (Sofusa) administration were approximately 40-fold greater, and approximately 9-fold greater at 36 hours, than etanercept concentrations administered via IV.
Methods and procedures for some of these experiments have been adapted from Aldrich, et al., Arthritis Res. Ther., (2017), 19:116 (DOI 10.1186/s13075-017-1323-z; Open Access) which is incorporated by reference herein in its entirety for all purposes.

patients with RA = conditions: cited from earlier work
[2] = system: patients with moderately to severely active Rheumatoid Arthritis (RA); assay: Phase 1b study of Enbrel administered by SOFUSA: DAS28 (ESR/CRP) disease activity scores; type: in vivo, human; conditions: Patient ID 01-002
Excerpt: (§1) An exemplary Sofusa Lymphatic Delivery System (SOFUSA) was designed to access the lymphatic system directly through the skin at the epidermal/dermal boundary (See FIG. 1) such that the infusion accessed afferent lymphatic capillaries when employed as described in Examples 2 and 3, below. The exemplary SOFUSA system was comprised of a microneedle device (see, e.g., FIG. 3A) and a syringe pump configured to administer anti-arthritic therapeutic agent, such as Enbrel, into the lymphatic circulation through the skin. This configuration was optimized to provide flow rates and pharmacokinetics using lymphatic anti-arthritic drug delivery in early phase clinical trials. The exemplary SOFUSA device was attached to the body of subjects via an attachment system that domed the skin upwards for consistent microneedle penetration, and a nylon strap with Velcro® that comfortably held the device down on the skin, keeping the microneedles in position until the dosing was complete (See, e.g., FIG. 2). Dose volume and infusion rate were set with an infusion pump (See, e.g., FIG. 2).
(§2) SOFUSA microneedles were arranged into an array and placed on the skin using a mechanical impact applicator. A solution comprising Enbrel at a concentration of approximately 50 milligrams per milliliter (50 mg/mL) was then administered at a controlled infusion rate into the device, through the microneedles and into the skin using an external syringe pump. The solution comprising Enbrel was delivered into the body at an infusion rate of 0.5 milliliters per hour (mL/hr), which corresponded to an infusion period of one hour to deliver a 25 mg dose and 2 hours to deliver a 50 mg dose.
(§3) In this ongoing Phase 1b study, 25 mg of Enbrel (50% of the non-SOFUSA delivered subcutaneous dose) was administered lymphatically once weekly via SOFUSA to patients for 12 weeks. The study design calls for an increase in the SOFUSA-administered Enbrel dose to 50 mg during the dose escalation phase of the study (weeks 4-8) provided that dose escalation criteria are met. Patients remain on either the 25 mg or 50 mg dose for the final maintenance phase of the study. The dose escalation criteria for the Enbrel dose to be increased from 25 mg to 50 mg are: a DAS28 (ESR)≥3.2 and an increase in DAS28 (ESR)>0.6 compared to baseline.
(§4) Patients entered in the study had been treated with subcutaneous Enbrel with or without continuation of MTX, and have had either a primary (lack of sufficient efficacy with initial treatment) or secondary (initial efficacy but became inefficacious over time) inadequate response with the maximum approved dose of Enbrel. […] To the extent that inadequate response to Enbrel in some patients may be due to insufficient Enbrel levels in target lymphoid tissues or an inadequate immunologic response, Enbrel administered into the lymphatic system via SOFUSA was therefore theorized to provide a favorable clinical response despite an inadequate response to subcutaneous Enbrel administration.
(§5) This patient received SOFUSA-administered Enbrel at a 25 mg dosage once weekly for 12 weeks. Each week, SOFUSA was applied to the dorsal forearm with alternating left and right arm locations and the SOFUSA-administered Enbrel solution was infused through the skin into the lymphatic circulation for one hour.
Disease Activity Scores (DAS) 28 (DAS28) DAS28) were calculated based on 28 tender and swollen joints, Patient Global Assessment of Disease Activity, and C-Reactive Protein (CRP) or Erythrocyte Sedimentation Rate (ESR). DAS28 (ESR) and DAS28 (CRP) scores for Patient ID 01-002 are shown in FIG. 4A and FIG. 4B, respectively.

local lymphatic function = assay: Near-Infrared Fluorescence (NIRF) lymphatic imaging with Indocyanine Green; type: in vivo, human
Procedure: The local lymphatic function was measured using Near-Infrared Fluorescence (NIRF) imaging techniques with Indocyanine Green (ICG) at the beginning, at 6 weeks, and at the end of the study. […] The ICG was delivered at the opposite arm location as the Enbrel dosing.
In this regard, it has been speculated that lymphatic dysfunction may encourage the development of rheumatic autoimmune diseases such as scleroderma, lupus, and rheumatoid arthritis (see, e.g., Aletaha, D., et al., Ann. Rheum. Dis., 75, 1479-1485 (2016)). […] NIRF imaging of the lymphatics after infusion of a solution of ICG at the beginning, middle and end of the study. NIRF imaging was used to assess lymphatic pumping in RA patients before and after treatment with SOFUSA with Enbrel. Additionally, the imaging provided a visualization of the lymphatic vessels and was intended to confirm that SOFUSA delivers ICG solution directly into the lymphatics.

[3] = system: patients with moderately to severely active Rheumatoid Arthritis (RA); assay: Phase 1b study of Enbrel administered by SOFUSA: tender and swollen joint counts; type: in vivo, human
Excerpt: as §1, §2, §3, §4, §5
Joint counts were performed every 2 weeks. There was observed a consistent decrease in the number of tender and swollen joints using both 66/68 and 28 joint count criteria for the entire 12-week dosing period (See FIG. 5A and FIG. 5B, respectively).

[4] = system: patients with moderately to severely active Rheumatoid Arthritis (RA); assay: Phase 1b study of Enbrel administered by SOFUSA: patient/physician disease activity and pain Visual Analog Scale; type: in vivo, human; conditions: for Patient Assessment of Pain (VAS) decrease / Patient Global Assessment of Disease Activity (VAS) decrease / Physician Global Assessment of Disease Activity (VAS) decrease: SOFUSA Enbrel 25 mg once weekly for 12 weeks
Excerpt: as §1, §2, §3, §4, §5
Ratings were performed by each patient and physician on a Visual Analog Scale (VAS) every 2 weeks for disease activity (patient and physician) and disease-related pain (patient). […] In addition, the Patient Assessment of Pain for Patient ID 01-002 decreased from 46 mm at week 0 to 29 mm at week 12 (i.e., 37.0% decrease). The Physician Global Assessment of Disease Activity for Patient ID 01-002 decreased substantially from 50 mm at week 0 to 15 mm at week 12, corresponding to a 70.0% decrease in disease activity.

[5] = system: patients with moderately to severely active Rheumatoid Arthritis (RA); assay: Phase 1b study of Enbrel administered by SOFUSA: DAS28 (ESR/CRP) disease activity scores; type: in vivo, human; conditions: Patient 01-004; SOFUSA Enbrel 25 mg once weekly; indicative of remission
[6] = system: patients with moderately to severely active Rheumatoid Arthritis (RA); assay: Phase 1b study of Enbrel administered by SOFUSA: ACR response; type: in vivo, human; conditions: week 10 vs baseline (week 0); Patient 01-002 and Patient 01-004; SOFUSA Enbrel 25 mg once weekly
Excerpt: as §1
SOFUSA microneedles were arranged into an array and placed on the skin using a mechanical impact applicator. […]

[7] = before SOFUSA dosing, inadequate response to weekly 50 mg Enbrel subcutaneous
[8] = Patient 01-002, by week 12 of the study
[9] = Patient ID 01-002 (FIG. 5), week 0 to week 12, SOFUSA Enbrel 25 mg once weekly
[10] = Patient ID 01-004, SOFUSA Enbrel 25 mg once weekly for 12 weeks
[11] = Patient ID 01-006, SOFUSA Enbrel 25 mg once weekly for 12 weeks
[12] = Patient ID 01-002, SOFUSA Enbrel 25 mg once weekly
[13] = Patient ID 01-002, before SOFUSA dosing
[14] = Patient ID 01-002, week 0 to week 12, SOFUSA Enbrel 25 mg once weekly

Substance: etanercept [Enbrel]
- etanercept concentration in lymph nodes, lymphatic delivery compared to all other tested delivery routes (IV, SC, ID) ([1]; 12 and 36 hours post-administration, FIG. 12): far greater
- etanercept concentration in lymph nodes, lymphatic (Sofusa) vs IV administration ([1]; 12 hours post administration): approximately 40 fold
- etanercept concentration in lymph nodes, lymphatic (Sofusa) vs IV administration ([1]; 36 hours post administration): approximately 9 fold
- efficacy response rate, ACR70 (patients with RA; Enbrel in combination with MTX, delivered systemically): < 50%
- patients achieving ACR70 (patients with RA; Enbrel plus MTX, at 3 and 6 months, Enbrel prescribing information): 15%
- DAS28 (ESR) at week 12 ([2]; SOFUSA Enbrel 25 mg once weekly, baseline 4.58): 3.02
- DAS28 (CRP) at Week 12 ([2]; SOFUSA Enbrel 25 mg once weekly, baseline 4.99): 3.12
- DAS28 (ESR) decrease from baseline ([2]; SOFUSA Enbrel 25 mg once weekly, week 12 vs baseline 4.58): 34.1%
- DAS28 (CRP) decrease from baseline ([2]; SOFUSA Enbrel 25 mg once weekly, week 12 vs baseline 4.99): 37.5%
- DAS28 (ESR) at Week 10 (lowest achieved) ([2]; after 10 weekly 25 mg SOFUSA Enbrel doses, level of remission): 2.10
- DAS28 (CRP) at baseline [2, 7]: 4.99
- DAS28 (CRP) at screening [2, 7]: 4.94
- DAS28 (ESR) at baseline [2, 7]: 4.58
- DAS28 (ESR) at screening [2, 7]: 4.62
- lymphatic pump rate at week 0 (local lymphatic function; week 0, before SOFUSA treatment, ICG at opposite arm): less than 0.5 pumps per minute
- lymphatic vessels visible by NIRF imaging at week 6 (local lymphatic function; week 6, after 6 SOFUSA Enbrel doses, vs week 0 (very few vessels visible)): significantly more lymphatic vessels could be imaged
- lymphatic pump rate at week 6 (local lymphatic function; week 6, after 6 SOFUSA Enbrel doses, ICG at opposite arm): greater than 2 pumps per minute
- SJC66 decrease (ACR response section) [3, 8]: 55.6%
- TJC68 decrease (ACR response section) [3, 8]: 58.8%
- decrease in number of swollen joints, 28-Joint Count [3, 9]: 28.6%
- decrease in number of swollen joints, full 66-Joint Count [3, 9]: 44.4%
- decrease in number of tender joints, 28 Joint Count [3, 9]: 90.9%
- decrease in number of tender joints, full 68-Joint Count [3, 9]: 70.6%
- SJC66 decrease [3, 10]: 66.7%
- TJC68 decrease [3, 10]: 60.0%
- SJC66 change [3, 11]: unchanged
- TJC68 decrease [3, 11]: 70.6%
- Patient Assessment of Pain (VAS) decrease (ACR response section) [4, 8]: 69.6%
- Patient Global Assessment of Disease Activity (VAS) decrease (ACR response section) [4, 8]: 63.5%
- Physician Global Assessment of Disease Activity (VAS) decrease (ACR response section) [4, 8]: 50.0%
- Patient Assessment of Pain (VAS) at week 12 [4, 12]: 29 mm
- Patient Global Assessment of Disease Activity (VAS, 100 mm) at week 12 [4, 12]: 21 mm
- Physician Global Assessment of Disease Activity (VAS) at week 12 [4, 12]: 15 mm
- Patient Assessment of Pain (VAS) at week 0 [4, 13]: 46 mm
- Patient Global Assessment of Disease Activity (VAS, 100 mm) at week 0 [4, 13]: 52 mm
- Physician Global Assessment of Disease Activity (VAS) at week 0 [4, 13]: 50 mm
- Patient Assessment of Pain, decrease [4, 14]: 37.0%
- Patient Global Assessment of Disease Activity, overall reduction [4, 14]: 59.6%
- Physician Global Assessment of Disease Activity, decrease [4, 14]: 70.0%
- Patient Assessment of Pain (VAS) decrease ([4]; Patient ID 01-004): 100.0%
- Patient Global Assessment of Disease Activity (VAS) decrease ([4]; Patient ID 01-004): 46.7%
- Physician Global Assessment of Disease Activity (VAS) decrease ([4]; Patient ID 01-004): 85.4%
- Patient Global Assessment of Disease Activity (VAS) decrease at week 10 ([4]; Patient ID 01-004, week 10 of the study): 73.3%
- Patient Assessment of Pain (VAS) decrease ([4]; Patient ID 01-006): 98.9%
- Patient Global Assessment of Disease Activity (VAS) decrease ([4]; Patient ID 01-006): 97.1%
- Physician Global Assessment of Disease Activity (VAS) decrease ([4]; Patient ID 01-006): 75.4%
- DAS28 (ESR) at week 10 [5]: 2.10
- ACR 50% response [6]: achieved
